Test results reported in patent US20100041665A1, “N-PHENYL-PRENYLAMINE DERIVATIVES FOR THE TREATMENT OF COGNITIVE, NEURODEGENERATIVE OR NEURONAL DISEASES OR DISORDERS” (NOSCIRA, S.A., priority 2006, published 2010).

What was measured:
[1] = biological target: T1, rhBACE-1 β-Secretase recombinant human (Homo sapiens, UniProt P56817); assay: BACE assay (FRET); assay type: biochemical; conditions: percentage of enzyme activity
T1 construct: purchased R&D Systems 931-AS
From the text: The aim of this assay is to determine if a compound, either synthetic or of marine origin, is a BACE-1 inhibitor, to avoid the formation of Aβ. This assay is based on FRET technology (Fluorescence Resonance Energy Transfer). FRET is used to measure cleavage of a peptide substrate, among other uses. […] When a substrate peptide cleavage occurs, the energy balance is broken and all the donor fluorescence can be observed. The increase in fluorescence is linearly related to the rate of proteolysis (Gordon, G W et al., 1998). In this assay the reaction occurs between an enzyme, purified BACE-1, and a fluorogenic peptidic substrate who present the “Swedish mutation”. The peptide cleavage by BACE-1 produces fluorescence energy and enzymatic activity can be quantified.
The reagents which are used in this assay are the following: • rhBACE-1 β-Secretase recombinant human (R&D Systems. Ref. 931-AS). • Fluorogenic Peptide Substrate IV (R&D Systems. Ref. ES004). • Beta-SECRETASE INHIBITOR H-4848. (BACHEM. Ref. H-4848.0001). • Sodium acetate.
The assay is carried out in a 96 wells microplate. The final concentration of substrate is 3.5 μM per well, and the enzyme concentration is 0.5 μg/ml. The final volume of the assay is 100 μl per well and all reagents are diluted in Reaction Buffer. The compounds are tested at a concentration of 10^−5 and 10^−6 M. The control in the assay is the commercial inhibitor β-Secretase inhibitor H-4848 from BACHEM, which is tested at 300 nM. All the samples and controls are studied by duplicate.
The plate is mixed gently and changes in the fluorescence are measured using a fluorimeter plate reader, with 320 nm excitation filter and 405 nm emission filter. The temperature should be preferably maintained between 25 and 30° C. Measurements are carried out every ten minutes during an hour. The first measure is subtracted from the last to calculate the fluorescence increase, evaluating the enzymatic activity. The 100% activity is calculated as the mean of the results of wells without sample or inhibitor.
In the cases where abnormal effects in fluorescence were detected, BACE inhibition activity was assayed using BACE-1 (beta-Secretase) FRET ASSAY KIT (Invitrogen, Ref. P2985). Fluorescence was measured with a fluorimeter plate reader, with 544 nm excitation filter and 580 nm emission filter.
(§1) The compounds of formula (I) of the present invention where submitted to the above indicated assays, in order to determine both their GSK-3 inhibition activity and BACE activity inhibition. The results are indicated in Table I and Table II, in percentage of the respective enzyme activity.

[2] = biological target: Recombinant human glycogen synthase kinase 3 beta (Homo sapiens, UniProt P49841); assay: GSK-3 beta inhibition assay; assay type: biochemical; conditions: percentage of enzyme activity; for remaining activity at 25 µM / remaining activity at 50 µM: 0.5 h
Experimental: GSK-3 beta Inhibition Assay
The GSK-3 beta activity of the compounds of formula (I) according to the present invention was determined by incubation of a mixture of recombinant human GSK-3 enzyme, a phosphate source and GSK-3 substrate in the presence and in the absence of the corresponding test compound, and by measuring the GSK-3 activity of this mixture. The compounds where tested at final concentrations of 25 and 50 μM.
Recombinant human glycogen synthase kinase 3 beta was assayed in MOPS 11 mM, pH 7.4, EDTA 0.2 mM, EGTA 1.25 mM, MgCl2 26.25 mM and sodium orthovanadate 0.25 mM in the presence of 62.5 μM of Phospho-Glycogen Synthase Peptide-2 (GS-2), 0.5 μCi gamma-^33P-ATP and unlabelled ATP at a final concentration of 12.5 μM. The final assay volume was 20 μl. After incubation for 30 minutes at 30° C., 15 μl aliquots were spotted onto P81 phosphocellulose papers. Filters were washed four times for at least 10 minutes each and counted with 1.5 ml of scintillation cocktail in a scintillation counter.
as §1

T1 sequence (P56817 46-457 limits assumed): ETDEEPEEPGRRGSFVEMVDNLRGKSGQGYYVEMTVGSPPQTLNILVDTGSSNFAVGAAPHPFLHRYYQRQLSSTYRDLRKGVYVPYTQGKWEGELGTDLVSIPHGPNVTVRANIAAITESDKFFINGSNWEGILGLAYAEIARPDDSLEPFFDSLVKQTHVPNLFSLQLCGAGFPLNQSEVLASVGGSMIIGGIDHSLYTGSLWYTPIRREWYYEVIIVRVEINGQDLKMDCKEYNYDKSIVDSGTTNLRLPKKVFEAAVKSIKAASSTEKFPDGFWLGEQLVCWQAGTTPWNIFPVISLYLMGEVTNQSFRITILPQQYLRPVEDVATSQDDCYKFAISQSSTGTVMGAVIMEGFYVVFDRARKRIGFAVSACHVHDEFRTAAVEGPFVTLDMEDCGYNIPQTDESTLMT
Recombinant human glycogen synthase kinase 3 beta, sequence (P49841 whole entry): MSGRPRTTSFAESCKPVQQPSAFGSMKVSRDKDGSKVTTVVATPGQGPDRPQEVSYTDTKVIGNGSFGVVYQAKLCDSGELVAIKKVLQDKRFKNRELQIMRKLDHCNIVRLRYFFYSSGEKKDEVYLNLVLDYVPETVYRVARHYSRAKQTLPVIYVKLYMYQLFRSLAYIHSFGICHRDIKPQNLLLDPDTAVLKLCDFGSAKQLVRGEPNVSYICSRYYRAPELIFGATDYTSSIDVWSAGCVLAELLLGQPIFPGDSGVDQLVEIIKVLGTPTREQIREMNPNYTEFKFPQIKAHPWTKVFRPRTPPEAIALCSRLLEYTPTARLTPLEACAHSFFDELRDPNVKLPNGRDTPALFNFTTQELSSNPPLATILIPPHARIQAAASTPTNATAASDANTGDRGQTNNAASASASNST

| Structure (SMILES) | % of BACE activity ([1]; compound at 1 μM) | % of BACE activity ([1]; compound at 10 μM) | remaining activity at 25 µM ([2]; compound at 25 μM) | remaining activity at 50 µM ([2]; compound at 50 μM) | % GSK-3 beta activity ([2]; compound at 25 μM) | % GSK-3 beta activity ([2]; compound at 50 μM) |
| --- | --- | --- | --- | --- | --- | --- |
| COC(=O)c1cccc(NC/C=C(\C)CC/C=C(\C)CCC=C(C)C)c1 [Compound 7] | 0% | 0% |  | 54.7% |  |  |
| CC(C)=CCC/C(C)=C/CC/C(C)=C/CNc1cccc(C(=O)O)c1 [Compound 9] | 89.5 ± 9% | 25.5 ± 6% | 84.1% | 39.6% |  |  |
| COc1ccccc1NCC=C(C)CCC=C(C)CCC=C(C)C [Compound 12, (2-Methoxy-phenyl)-(3,7,11-trimethyl-dodeca-2,6,10-trienyl)-amine] | 94 ± 8% | 64.5 ± 9% | 74.8% | 56.7% |  |  |
| CC(C)=CCCC(C)=CCNc1cccc(C(=O)O)c1 [Compound 13, 3-(3,7-Dimethyl-octa-2,6-dienylamino)-benzoic acid] | 75 ± 5% | 70 ± 19% | 55.5% | 35.5% |  |  |
| COCOc1ccc(C(=O)OC)cc1NC/C=C(\C)CC/C=C(\C)CCC=C(C)C [Compound 14] | 60 ± 17% | 4 ± 6% | 61.8% | 25.4% |  |  |
| COC(=O)c1ccc(OC)c(N(C/C=C(\C)CCC=C(C)C)C/C=C(\C)CCC=C(C)C)c1 [Compound 17] | 43 ± 15% | 0% |  |  | 73.2% | 42.14% |
| COC(=O)c1ccc(OC)c(N(C/C=C(\C)CC/C=C(\C)CCC=C(C)C)C/C=C(\C)CC/C=C(\C)CCC=C(C)C)c1 [Compound 18] | 100% | 100% | 56.6% | 5.35% |  |  |
| COc1ccc(C(=O)O)cc1N(CC=C(C)CCC=C(C)CCC=C(C)C)CC=C(C)CCC=C(C)CCC=C(C)C [Compound 19, 3-[Bis-(3,7,11-trimethyl-dodeca-2,6,10-trienyl)-amino]-4-methoxy-benzoic acid] | 60 ± 14% | 46 ± 28% | 30.6% | 15.3% |  |  |
| COC(=O)c1cccc(N(CC=C(C)CCC=C(C)C)CC=C(C)CCC=C(C)C)c1 [Compound 20, 3-[Bis-(3,7-dimethyl-octa-2,6-dienyl)-amino]-benzoic acid methyl ester] | 76 ± 25% | 3 ± 5% | 67.3% | 36.2% |  |  |
| CC(C)=CCC/C(C)=C/CN(C/C=C(\C)CCC=C(C)C)c1cccc(C(=O)O)c1 [Compound 24] | 24 ± 12% | 1.6 ± 2% | 37.4% | 24.6% |  |  |
| COc1ccccc1N(C/C=C(\C)CCC=C(C)C)C/C=C(\C)CCC=C(C)C [Compound 27] | 88.5 ± 0.7% | 51 ± 16% | 90.7% | 59.6% |  |  |
| COC(=O)c1ccc(O)c(N(CC=C(C)CCC=C(C)CCC=C(C)C)CC=C(C)CCC=C(C)CCC=C(C)C)c1 [Compound 28, 3-[Bis-(3,7,11-trimethyl-dodeca-2,6,10-trienyl)-amino]-4-hydroxy-benzoic acid methyl ester] | 83 ± 12% | 40.5 ± 19% | 48.5% | 20.7% |  |  |
| COC(=O)c1ccc(OC(C)=O)c(N(C/C=C(\C)CCC=C(C)C)C/C=C(\C)CCC=C(C)C)c1 [Compound 31] | 89.5 ± 18% | 4.5 ± 6% | 108% | 17.4% |  |  |
| COC(=O)c1ccc(OC)c(N(CC=C(C)CCC=C(C)CCC=C(C)C)C(=O)OC(C)(C)C)c1 [Compound 33, 3-[tert-Butoxycarbonyl-(3,7,11-trimethyl-dodeca-2,6,10-trienyl)-amino]-4-methoxy-benzoic acid methyl ester] | 92 ± 4% | 61 ± 17% | 27.9% | 19.8% |  |  |
| COC(=O)c1ccc(OC)c(NCC=C(C)CCC=C(C)CCC=C(C)CCC=C(C)C)c1 [Compound 34, 4-Methoxy-3-(3,7,11,15-tetramethyl-hexadeca-2,6,10,14-tetraenylamino)-benzoic acid methyl ester] | 100% | 100% | 34.7% | 19.1% |  |  |
| COC(=O)c1ccc(OC)c(NCC=C(C)CCC=C(C)COC2CCCCO2)c1 (stereo not shown) [Compound 36, 3-[3,7-Dimethyl-8-(tetrahydro-pyran-2-yloxy)-octa-2,6-dienylamino]-4-methoxy-benzoic acid methyl ester] | 45 ± 12% | 7 ± 7% | 79.7% | 80.1% |  |  |
| CCCOc1ccc(C(=O)OC)cc1N(C/C=C(\C)CC/C=C(\C)CCC=C(C)C)CCC [Compound 44] |  |  | 79.6% | 8.26% |  |  |

Continued, values first:

| % of BACE activity ([1]; compound at 1 μM) | % of BACE activity ([1]; compound at 10 μM) | remaining activity at 25 µM ([2]; compound at 25 μM) | remaining activity at 50 µM ([2]; compound at 50 μM) | % GSK-3 beta activity ([2]; compound at 25 μM) | % GSK-3 beta activity ([2]; compound at 50 μM) | Structure (SMILES) |
| --- | --- | --- | --- | --- | --- | --- |
| 50 ± 9% | 0% | 70.2% | 52.8% |  |  | COc1ccc(C(=O)O)cc1NC/C=C(\C)CC/C=C(\C)CCC=C(C)C [Compound 5] |
| 41 ± 12% | 0% | 37.4% | 21.6% |  |  | CC(C)=CCC/C(C)=C/CC/C(C)=C/CN(C/C=C(\C)CC/C=C(\C)CCC=C(C)C)c1cccc(C(=O)O)c1 [Compound 23] |
| 2.5 ± 3.5% | 0 ± 0% | 71.3% | 40.4% |  |  | COC(=O)c1ccc(O)c(N(C/C=C(\C)CCC=C(C)C)C/C=C(\C)CCC=C(C)C)c1 [Compound 29] |
| 48 ± 6% | 33 ± 7% |  |  | 17.31% | 0.17% | COC(=O)c1ccc(OC)c(N(C/C=C(\C)CCC=C(C)C)C/C=C(\C)CCC=C(C)C)c1 [Compound 30] |
| 91 ± 9% | 41 ± 14% | 105% | 97.9% |  |  | COC(=O)c1ccc(OC)c(N(CC=C(C)CCC=C(C)CCC=C(C)CCC=C(C)C)CC=C(C)CCC=C(C)CCC=C(C)CCC=C(C)C)c1 [Compound 35, 3-[Bis-(3,7,11,15-tetramethyl-hexadeca-2,6,10,14-tetraenyl)-amino]-4-methoxy-benzoic acid methyl ester] |
|  |  | 106% | 110% |  |  | COc1ccc(C(=O)NCCCO)cc1N(C/C=C(\C)CCC=C(C)C)C/C=C(\C)CCC=C(C)C [Compound 42] |
|  |  | 125% | 111% |  |  | COc1ccc(C(=O)/N=C(\N)NCCCO)cc1N(C/C=C(\C)CCC=C(C)C)C/C=C(\C)CCC=C(C)C [Compound 45] |
|  |  | 34.7% | 19.1% |  |  | COc1ccc(C(=O)/N=C(\N)NCCO)cc1N(C/C=C(\C)CCC=C(C)C)C/C=C(\C)CCC=C(C)C [Compound 47] |
